Test results: paper PMC11109052, “Metabolism characterization and toxicity of N-hydap, a marine candidate drug for lung cancer therapy by LC–MS method” (Natural Products and Bioprospecting, 2024)

What was measured:
RLMs = assay: Kinetics of N-hydap glucuronidation in RLMs; assay type: in vitro ADME, rat; details: RLM
Description: In this study, the rats were executed by drawing blood from the abdominal aorta and mice were sacrificed with cervical dislocation before the liver and kidneys were excised. The liver and kidneys were removed, and washed with chilled cleansing solution (contains 8 mM KH2PO4, 5.6 mM EDTA·K2·2H2O, 1 mM DTT and 229.6 μM PMSF), homogenized in a tissue homogenate buffer with a pH of 7.4, (consisting of […], 8 mM K2HPO4, 250 mM sucrose, 1 mM EDTA·K2·2H2O and 229.6 μM PMSF). Subsequently, the homogenate was centrifuged at 10,400 rpm at 4 °C for 15 min, and the supernatant was then centrifuged at 35,000 rpm at 4 °C for 60 min. A 250 mM sucrose buffer was added to the pellet to reconstitute and the resuspension was stored at − 80 °C until use. Microsome protein concentrations were measured by Omni-Easy™ Instant BCA Protein Assay Kit.
Various microsomes including HLMs, HKMs, HIMs, RLMs, RKMs, MLMs and MKMs were involved in CYP and UGT reactions of N-hydap. […]
The substrate concentrations used for HLMs were 0.05, 0.5, 2, 2.5, 5, 10, 25, 50, and 100 μM. […] The rates of N-hydap-G by enzymes were expressed as nmol/mg/min, representing the amount of metabolites formed per minute per milligram of protein. Kinetic parameters were determined by analyzing the Eadie–Hofstee plots. […]

Ugt1a1 = assay: Western blot protein level after 7 days gavage: UGT1A1; assay type: in vivo; details: mice, p.o. 7 days; liver
Description: Mice were randomly divided into four groups, with eight animals in each group. The mice received oral pretreatment with N-hydap for 7 days at doses of 2, 5, and 10 mg/kg/day, which were considered as the low dose, medium dose, and high dose, respectively. Correspondingly, the control group received PBS. On the 8th day, the liver and kidneys were removed, and organs from eight mice per group were combined to prepare MLMs and MKMs using the detailed procedures above. Subsequently, we determined the activity of CYP and UGT enzymes by specific substrate metabolized with MLMs (0.5 mg/mL) and MKMs (0.2 mg/mL) in vitro. […] In the ex vivo experiments, the activity of enzymes was measured by quantifying the production of various metabolites (nM/mg protein/min). […] The measurements were performed using multiple reaction monitoring (MRM) transitions, which are specific mass spectrometry transitions used for quantification. […]
After 7 days of N-hydap gavage, the liver and kidney tissues were lysed using RIPA buffer supplemented with a 1% protease inhibitor cocktail. […] Western blot signals were detected using an ECL chemiluminescence detection agent. The relative intensity of each protein band was scanned and quantified using Image J software.

## CC1CCC2C(C=CC(C)C2C(=O)c2c(O)c(C3(O)CCC(O)C4OC43)cn(O)c2=O)C1 (centres unmarked) [N-hydap, N-Hydroxyapiosporamide]
RLMs
  Km: 0.357 µM
Ugt1a1
  protein levels of UGT1A1: slightly down-regulated
